Results from PMC10343299, “S-Ethyl-Isothiocitrullin-Based Dipeptides and 1,2,4-Oxadiazole Pseudo-Dipeptides: Solid Phase Synthesis and Evaluation as NO Synthase Inhibitors” (Molecules, 2023).
Like-named read-outs stand apart in the source and are kept apart here.

Key:
[1] = test system: INS-1 cells (nNOS); assay: Glucose-induced insulin secretion; type: cell-based; conditions: 5.6 mM glucose, no IL-1β, 1 h, compounds 500 µM to 5 mM, L-NAME 5 mM
Experimental: Indeed, pancreatic β-cells are known to constitutively express the nNOS isoform, which negatively modulates glucose-induced insulin secretion.
The insulin-secreting cell line INS-1 (a gift from Prof. C. Wolheim, Geneva, Switzerland) was cultured in RPMI-1640 supplemented with 10% FCS, 100 units/mL penicillin, 100 µg/mL streptomycin, 2 mM L-glutamine, 10 mM HEPES, 1 mM sodium pyruvate, and […] 2-mercaptoethanol, according to M. Asfari et al.’s method.
The functional effects of compounds were evaluated on INS-1 cells. Cells were preincubated for 1 h at 37 °C in a Krebs–Ringer bicarbonate buffer (108 mM NaCl, 1.19 mM KH2PO4, 4.74 mM KCl, 2.54 mM CaCl2, 1.19 mM MgSO4·7H2O, and 18 mM NaHCO3) containing 2 g/L BSA in the absence of glucose. After removal of the medium, the cells were stimulated for another hour at 37°C in the same buffer in the presence of 5.6 mM glucose and the presence of increasing concentrations of L-NAME or compounds (from 500 µM to 5 mM). At the end of the incubation period, the medium was collected, and the insulin was measured using an insulin high-range assay kit (CisBio, Codolet, France). Data are expressed as means ± SEM of the experiments (indicated in the result part).

[2] = molecular target: T1, mouse iNOS (Mus musculus, UniProt P29477); assay: NOS inhibition, oxyhemoglobin (hemoglobin capture) test, recombinant iNOS; type: biochemical; conditions: recombinant enzyme, 20 µM arginine, triplicate, NI = <50% inhibition at 100 μM; for inhibition at 100 µM: read-out: IC50 (μM) iNOS (Mouse)
T1 construct: Full-length recombinant rat nNOS, mouse iNOS, bovine eNOS; made in house; host or cells: Escherichia coli
T1 sequence (P29477 1-1144): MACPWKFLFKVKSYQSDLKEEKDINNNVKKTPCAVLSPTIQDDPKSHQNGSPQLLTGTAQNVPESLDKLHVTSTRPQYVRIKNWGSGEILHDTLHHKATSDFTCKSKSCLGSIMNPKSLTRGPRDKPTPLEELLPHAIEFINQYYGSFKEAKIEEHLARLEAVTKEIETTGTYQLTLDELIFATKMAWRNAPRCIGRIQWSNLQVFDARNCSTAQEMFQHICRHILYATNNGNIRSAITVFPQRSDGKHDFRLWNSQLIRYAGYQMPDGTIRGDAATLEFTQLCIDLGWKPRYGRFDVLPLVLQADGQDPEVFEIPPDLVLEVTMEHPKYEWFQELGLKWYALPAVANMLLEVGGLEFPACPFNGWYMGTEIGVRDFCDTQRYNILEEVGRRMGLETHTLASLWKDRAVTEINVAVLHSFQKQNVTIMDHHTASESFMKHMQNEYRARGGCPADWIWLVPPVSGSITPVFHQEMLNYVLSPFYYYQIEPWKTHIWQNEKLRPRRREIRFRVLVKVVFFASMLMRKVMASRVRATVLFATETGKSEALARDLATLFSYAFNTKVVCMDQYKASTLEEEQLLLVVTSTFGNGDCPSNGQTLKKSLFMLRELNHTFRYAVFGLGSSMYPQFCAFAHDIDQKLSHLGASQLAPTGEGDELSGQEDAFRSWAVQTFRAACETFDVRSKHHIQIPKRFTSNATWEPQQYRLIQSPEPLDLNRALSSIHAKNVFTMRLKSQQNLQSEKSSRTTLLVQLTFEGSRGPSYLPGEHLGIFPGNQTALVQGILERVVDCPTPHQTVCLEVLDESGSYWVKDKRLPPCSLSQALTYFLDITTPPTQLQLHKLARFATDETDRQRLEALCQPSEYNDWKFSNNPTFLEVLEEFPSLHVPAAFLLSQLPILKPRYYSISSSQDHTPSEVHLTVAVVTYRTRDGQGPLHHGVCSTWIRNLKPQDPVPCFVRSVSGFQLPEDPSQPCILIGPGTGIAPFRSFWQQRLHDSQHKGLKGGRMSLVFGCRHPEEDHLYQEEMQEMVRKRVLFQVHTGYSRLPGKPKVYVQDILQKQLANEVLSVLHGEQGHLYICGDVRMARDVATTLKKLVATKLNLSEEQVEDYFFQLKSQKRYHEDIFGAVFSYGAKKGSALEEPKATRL
Experimental: (§1) The inhibitory effects of all compounds against the three recombinant NOSs (rat nNOS, mouse iNOS, and bovine eNOS) were evaluated in 96-well plates using the oxyhemoglobin test. A first screening at 100 and 10 μM was performed, and the IC50 values were measured for compounds showing more than 50% inhibition at 100 μM (Table 1 and Table 2).
(§2) Full-length recombinant rat nNOS, mouse iNOS, bovine eNOS, and the heme domains of rat brain nNOS and mouse iNOS were expressed in Escherichia coli and purified as described previously.
(§3) NOS catalytic activity was measured using the hemoglobin capture assay. The test was performed at 30 °C in 96-well microplates using a final volume of 200 µL. The assay mixture contained 100 µM NADPH, 10 µM BH4, 6 µM HbO2, 100 µM DTT, 5 µM FAD, 5 µM FMN, 10 µM (nNOS and eNOS), or 20 µM (iNOS) arginine, all in a 100 mM Hepes buffer, pH 7.5, and, for constitutive n- and e-NOS, 10 µg/mL calmodulin, and 1 mM CaCl2. The studied compounds were introduced as 2 μL of ×100 concentrated solutions in DMSO, and the control experiments were performed with DMSO or the buffer only. The kinetics of NO production were measured at 401 nm using an Infinite F500 microplate reader (Tecan, Singapore).

[3] = molecular target: T2, rat nNOS (Rattus norvegicus, UniProt P29476); assay: NOS inhibition, oxyhemoglobin (hemoglobin capture) test, recombinant nNOS; type: biochemical; conditions: for IC50: recombinant enzyme, 10 µM arginine, triplicate, NI = <50% inhibition at 100 μM
T2 construct: Full-length recombinant rat nNOS, mouse iNOS, bovine eNOS; made in house; host or cells: Escherichia coli
Experimental: as §1, §2, §3

[4] = test system: RAW 264.7 cells; assay: Cell viability, MTT assay; type: cell-based, murine
Experimental: Cell viability was evaluated in the murine macrophage RAW 264.7 cells using an MTT assay for compounds 18, 21, 26, and 30. This experiment was performed without or with LPS (1 µg/mL), which induces iNOS expression (Figure S1). […] Compound 30 only killed 20% of the cells at 500 μM (Figure S1A). In the presence of LPS (1 µg/mL), cell viability was reduced by 30% due to the inhibition by NO of key enzymes involved in cell metabolism (Figure S1B).
The macrophage cell line RAW 264.7 (a gift from Dr. A. Blangy, Montpellier, France) was cultured in Dulbecco’s Modified Eagle’s Medium (DMEM) supplemented with 10% FCS, 100 units/mL penicillin, 100 µg/mL streptomycin, and 2 mM L-glutamine.
Cellular NO production was measured using the Griess reagent (Sigma-Aldrich), which evaluates the nitrite content in culture media. Cellular toxicity was estimated by the MTT assay (Sigma-Aldrich) in RAW 264.7 cells after the induction (or not) of iNOS by LPS, according to the manufacturer’s recommendations.

[5] = molecular target: T3, bovine eNOS (Bos taurus, UniProt P29473); assay: NOS inhibition, oxyhemoglobin (hemoglobin capture) test, recombinant eNOS; type: biochemical; conditions: recombinant enzyme, 10 µM arginine, triplicate, NI = <50% inhibition at 100 μM, read-out: IC50 (μM) eNOS (Bovine)
T3 construct: Full-length recombinant rat nNOS, mouse iNOS, bovine eNOS; made in house; host or cells: Escherichia coli

[6] = molecular target: T4, oxygenase domain of nNOS (nNOSoxy) (Rattus norvegicus, UniProt P29476); assay: UV-visible difference spectroscopy titration of nNOSoxy; type: binding; conditions: UV/Vis difference spectroscopy, ± SD, three experiments; read-out: Apparent equilibrium constant Ks nNOSoxy
T4 construct: the oxygenase domain of nNOS (nNOSoxy) and iNOS (iNOSoxy); made in house; host or cells: Escherichia coli
Text: (§4) We performed UV–visible difference spectroscopy to analyze the interaction mode of some inhibitors with the heme-active site of NOS [54]. We have studied the effects of dipeptide-like compounds 7, 17, 19, 23, and 27 and 1,2,4-oxadiazole 35 on the UV–visible spectra of the oxygenase domain of nNOS (nNOSoxy) and iNOS (iNOSoxy). As expected, when added stepwise to n- and iNOSoxy, all selected compounds elicited different spectra with a trough at ~425 nm and a peak at ~395 nm, similar to the substrate L-arginine. This profile is characteristic of type I interactions, meaning that they are bound in close proximity to the heme prosthetic group and shifted the spin state equilibrium to the pentacoordinated heme–Fe^III state. Double reverse plotting of the differences in absorbance between the peak at ~395 nm and valley at ~425 nm (ΔA395–425 nm) as a function of the concentration of the added compounds allowed calculating apparent binding constants (Ks) (Table 3). The reference inhibitor SEITU [55] tightly bound both NOS isoforms with high affinity but no selectivity. With the exception of the dipeptide-like 27 and the heterocyclic analog 35, which similarly interacted with both proteins, other compounds preferentially bound nNOSoxy over iNOSoxy with apparent affinities close to SEITU for this isoform.
as §2
(§5) This study was performed as previously described.

[7] = molecular target: T5, oxygenase domain of iNOS (iNOSoxy) (Mus musculus, UniProt P29477); assay: UV-visible difference spectroscopy titration of iNOSoxy; type: binding; conditions: UV/Vis difference spectroscopy, ± SD, three experiments; read-out: Apparent equilibrium constant Ks iNOSoxy
T5 construct: the oxygenase domain of nNOS (nNOSoxy) and iNOS (iNOSoxy); made in house; host or cells: Escherichia coli
T5 sequence (P29477 1-498 limits assumed): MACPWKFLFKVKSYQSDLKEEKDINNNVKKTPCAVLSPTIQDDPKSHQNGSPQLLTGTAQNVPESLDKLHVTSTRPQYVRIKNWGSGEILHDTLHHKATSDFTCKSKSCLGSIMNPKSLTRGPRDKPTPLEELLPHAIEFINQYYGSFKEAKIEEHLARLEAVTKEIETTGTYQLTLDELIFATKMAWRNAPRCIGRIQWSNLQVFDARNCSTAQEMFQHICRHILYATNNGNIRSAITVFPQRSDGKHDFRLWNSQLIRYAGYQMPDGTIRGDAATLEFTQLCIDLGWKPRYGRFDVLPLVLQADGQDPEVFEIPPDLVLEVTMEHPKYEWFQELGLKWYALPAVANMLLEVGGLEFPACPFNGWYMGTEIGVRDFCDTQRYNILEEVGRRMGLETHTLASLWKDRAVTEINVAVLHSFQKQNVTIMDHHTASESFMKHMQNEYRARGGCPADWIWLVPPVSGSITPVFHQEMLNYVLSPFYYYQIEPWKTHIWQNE
Text: as §4, §2, §5

[8] = test system: iNOS; parameters: method as in PMID 32027778; conditions: Figure 1; previously described compounds; cited from earlier work
[9] = test system: nNOS; parameters: method as in PMID 32027778; conditions: Figure 1; previously described compounds; cited from earlier work
[10] = test system: eNOS; parameters: method as in PMID 32027778; conditions: Figure 1; previously described compounds; cited from earlier work

T3 sequence (P29473 whole entry): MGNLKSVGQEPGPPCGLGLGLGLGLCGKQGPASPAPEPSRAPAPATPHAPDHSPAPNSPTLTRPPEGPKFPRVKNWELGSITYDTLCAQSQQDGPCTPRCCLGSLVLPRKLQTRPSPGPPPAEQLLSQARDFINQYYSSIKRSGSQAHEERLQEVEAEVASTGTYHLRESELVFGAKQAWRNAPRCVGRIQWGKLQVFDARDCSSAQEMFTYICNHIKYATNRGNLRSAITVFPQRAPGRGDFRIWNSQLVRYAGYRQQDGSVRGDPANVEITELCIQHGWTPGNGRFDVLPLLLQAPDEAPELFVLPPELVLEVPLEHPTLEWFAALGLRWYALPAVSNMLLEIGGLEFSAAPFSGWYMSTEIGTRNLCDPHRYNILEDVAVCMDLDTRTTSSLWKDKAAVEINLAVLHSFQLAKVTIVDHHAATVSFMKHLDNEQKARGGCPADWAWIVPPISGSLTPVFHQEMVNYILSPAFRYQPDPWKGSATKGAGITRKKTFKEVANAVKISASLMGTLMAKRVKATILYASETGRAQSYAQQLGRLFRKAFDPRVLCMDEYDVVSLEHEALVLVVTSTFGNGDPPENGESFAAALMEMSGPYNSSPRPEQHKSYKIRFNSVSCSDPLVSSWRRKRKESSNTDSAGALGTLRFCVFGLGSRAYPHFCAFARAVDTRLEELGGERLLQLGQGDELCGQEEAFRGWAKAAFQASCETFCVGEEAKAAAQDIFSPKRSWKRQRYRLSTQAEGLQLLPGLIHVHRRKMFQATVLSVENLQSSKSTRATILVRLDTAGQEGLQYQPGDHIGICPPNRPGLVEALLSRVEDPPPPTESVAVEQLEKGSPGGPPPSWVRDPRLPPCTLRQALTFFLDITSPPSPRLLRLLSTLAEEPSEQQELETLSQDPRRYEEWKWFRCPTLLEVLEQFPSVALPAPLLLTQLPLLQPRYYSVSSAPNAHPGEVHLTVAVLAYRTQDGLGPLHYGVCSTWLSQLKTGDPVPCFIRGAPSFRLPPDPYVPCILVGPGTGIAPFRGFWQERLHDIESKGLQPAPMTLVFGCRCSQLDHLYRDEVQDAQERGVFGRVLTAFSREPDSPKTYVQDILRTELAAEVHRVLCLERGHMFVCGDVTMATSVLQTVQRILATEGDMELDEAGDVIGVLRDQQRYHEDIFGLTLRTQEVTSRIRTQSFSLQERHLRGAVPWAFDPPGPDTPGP
T2 sequence (P29476 whole entry): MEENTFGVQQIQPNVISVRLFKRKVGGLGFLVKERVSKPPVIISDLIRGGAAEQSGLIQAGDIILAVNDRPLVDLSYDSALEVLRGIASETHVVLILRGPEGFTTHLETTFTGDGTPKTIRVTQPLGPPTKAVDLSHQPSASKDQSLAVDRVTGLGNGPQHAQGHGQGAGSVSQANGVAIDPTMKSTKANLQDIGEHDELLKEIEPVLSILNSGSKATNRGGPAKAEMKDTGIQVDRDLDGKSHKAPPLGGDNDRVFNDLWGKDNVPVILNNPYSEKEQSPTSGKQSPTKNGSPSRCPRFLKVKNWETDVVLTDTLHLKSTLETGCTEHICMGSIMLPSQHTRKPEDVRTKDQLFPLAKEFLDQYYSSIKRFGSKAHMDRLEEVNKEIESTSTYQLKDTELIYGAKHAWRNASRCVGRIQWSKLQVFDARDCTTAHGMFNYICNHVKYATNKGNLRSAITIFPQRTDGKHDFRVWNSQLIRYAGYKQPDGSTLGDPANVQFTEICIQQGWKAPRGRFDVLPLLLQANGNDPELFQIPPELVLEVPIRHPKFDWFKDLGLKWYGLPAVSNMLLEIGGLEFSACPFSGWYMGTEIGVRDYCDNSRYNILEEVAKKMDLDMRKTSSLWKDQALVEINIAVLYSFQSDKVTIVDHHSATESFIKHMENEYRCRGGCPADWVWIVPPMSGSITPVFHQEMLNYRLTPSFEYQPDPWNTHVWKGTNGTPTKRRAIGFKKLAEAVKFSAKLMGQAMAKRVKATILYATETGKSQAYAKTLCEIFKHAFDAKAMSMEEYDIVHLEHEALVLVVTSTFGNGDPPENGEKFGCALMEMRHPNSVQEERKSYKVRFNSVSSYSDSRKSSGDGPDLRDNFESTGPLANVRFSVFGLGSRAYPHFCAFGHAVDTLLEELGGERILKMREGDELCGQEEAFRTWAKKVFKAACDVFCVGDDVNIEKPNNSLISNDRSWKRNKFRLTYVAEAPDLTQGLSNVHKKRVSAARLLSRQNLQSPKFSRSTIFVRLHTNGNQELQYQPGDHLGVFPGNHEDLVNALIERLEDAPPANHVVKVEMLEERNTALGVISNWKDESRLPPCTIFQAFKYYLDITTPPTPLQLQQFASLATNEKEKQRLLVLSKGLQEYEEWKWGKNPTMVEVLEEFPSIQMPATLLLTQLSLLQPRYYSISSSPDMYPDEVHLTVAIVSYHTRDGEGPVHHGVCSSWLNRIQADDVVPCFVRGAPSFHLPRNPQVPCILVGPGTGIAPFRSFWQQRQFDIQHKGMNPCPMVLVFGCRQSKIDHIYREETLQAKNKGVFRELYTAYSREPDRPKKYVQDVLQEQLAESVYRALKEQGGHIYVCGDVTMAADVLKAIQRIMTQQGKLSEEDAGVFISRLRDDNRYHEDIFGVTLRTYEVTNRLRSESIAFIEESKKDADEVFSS
T4 sequence (P29476 1-720 limits assumed): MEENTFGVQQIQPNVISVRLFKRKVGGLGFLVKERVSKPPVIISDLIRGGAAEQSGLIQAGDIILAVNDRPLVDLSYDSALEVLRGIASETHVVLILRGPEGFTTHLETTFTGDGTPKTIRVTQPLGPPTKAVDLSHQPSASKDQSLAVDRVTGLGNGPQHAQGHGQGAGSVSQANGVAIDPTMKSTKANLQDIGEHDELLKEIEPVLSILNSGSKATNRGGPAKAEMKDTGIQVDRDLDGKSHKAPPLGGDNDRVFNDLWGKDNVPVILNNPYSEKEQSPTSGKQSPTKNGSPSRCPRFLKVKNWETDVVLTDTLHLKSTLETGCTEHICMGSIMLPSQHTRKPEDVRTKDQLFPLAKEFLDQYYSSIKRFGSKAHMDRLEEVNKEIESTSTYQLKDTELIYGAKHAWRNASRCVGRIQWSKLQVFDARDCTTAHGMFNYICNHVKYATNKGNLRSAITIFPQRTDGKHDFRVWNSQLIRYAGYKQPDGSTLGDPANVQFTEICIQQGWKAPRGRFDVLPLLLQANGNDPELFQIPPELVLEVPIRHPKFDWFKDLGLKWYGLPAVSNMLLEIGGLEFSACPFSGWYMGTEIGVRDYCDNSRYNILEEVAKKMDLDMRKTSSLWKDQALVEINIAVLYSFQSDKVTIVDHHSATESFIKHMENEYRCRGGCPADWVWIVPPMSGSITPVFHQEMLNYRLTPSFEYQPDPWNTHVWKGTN

| IC50 ([2]; dipeptide-like series) | IC50 ([3]; dipeptide-like series) | inhibition at 100 µM ([5]; dipeptide-like series) | Kd [6] | Kd [7] | Compound | Effect on insulin secretion [1] | further results |
| --- | --- | --- | --- | --- | --- | --- | --- |
| 27.8 µM | 5.4 µM | – | – | – | CCSC(=N)NCCC[C@H](N)C(=O)N[C@H]1CCCN(Cc2cc([N+](=O)[O-])ccc2O)C1 [Compound 14] | dose-dependently stimulate glucose insulin secretion with better efficiency than L-NAME | – |
| – | 6 µM | < 50% | – | – | CCSC(=N)NCCC[C@H](N)C(=O)N[C@H]1CCCN(Cc2ccc(C(F)(F)F)c(Cl)c2)C1 [Compound 18] | dose-dependently stimulate glucose insulin secretion with better efficiency than L-NAME | Reversal of LPS-induced reduction of cell viability ([4]; RAW 264.7, LPS 1 µg/mL): none partially reversed the LPS effect; Effect on cell viability (MTT) ([4]; RAW 264.7, absence of LPS, up to 100 μM): fully toxic; inhibition at 100 µM ([2]; dipeptide-like series): < 50% |
| – | 7.7 µM | < 50% | 5.2 ± 1.1 µM | 96 ± 36 µM | CCSC(=N)NCCC[C@H](N)C(=O)N[C@H]1CCCN(Cc2ccccc2C(F)(F)F)C1 [Compound 19] | – | inhibition at 100 µM ([2]; dipeptide-like series): < 50% |
| 11.9 µM | 12.7 µM | < 50% | – | – | CCSC(=N)NCCC[C@H](N)C(=O)N[C@H]1CCCN(Cc2ccc3ccccc3c2)C1 [Compound 22] | dose-dependently stimulate glucose insulin secretion with better efficiency than L-NAME | – |
| 46.9 µM | 5.4 µM | < 50% | 11.4 ± 3.8 µM | 92.5 ± 8.8 µM | CCSC(=N)NCCC[C@H](N)C(=O)N[C@H]1CCCN(Cc2ccc(-c3ccccc3)cc2)C1 [Compound 23] | – | – |
| – | – | – | 47.1 ± 13 µM | 42.4 ± 8.7 µM | CCSC(=N)NCCC[C@H](N)c1nc(CCN(Cc2ccc3ccccc3c2)Cc2ccc3ccccc3c2)no1 [Compound 35] | – | inhibition at 100 µM ([5]; 1,2,4-oxadiazole series): < 50%; IC50 ([2]; 1,2,4-oxadiazole series): 11.7 µM; IC50 ([3]; 1,2,4-oxadiazole series): 0.4 µM; Selectivity for nNOS against eNOS ([3]; from IC50 values): > 250 fold; Selectivity for nNOS against iNOS ([3]; from IC50 values): approximately 30 fold |
| – | – | – | – | – | CCSC(=N)NCCC[C@H](N)c1nc(C)no1 [JMV3457] | – | IC50 [8]: 19 µM; IC50 [9]: 9.4 µM; IC50 [10]: 45 µM |
| – | – | – | – | – | CCSC(=N)NCCC[C@H](N)C(=O)NCCCN [JMV4246] | – | IC50 [8]: 48 µM; IC50 [9]: 6.6 µM; IC50 [10]: 52 µM |
| – | – | – | – | – | COC(=O)[C@@H](N)CCCNC(N)=N[N+](=O)[O-] [L-NAME, reference compound] | potentiated insulin release | – |
